US4086361A, “Aminoethyl oximes having anti-depressive activity” (U.S. Philips Corporation, priority 1975, dated 1978)
Counter-ions that a name gives are not always drawn.

What was measured:
Assay type in all cases: in vivo, male albino mice
[1] = test system: noradrenaline (tetrabenazine ptosis); assay: noradrenaline potentiation, tetrabenazine test; conditions: Mus musculus, oral, mice, 45 min before 80 mg/kg s.c. tetrabenazine, read-out: noradrenalin potentiation ED50
Procedure: The noradrenaline potentiation was determined in the tetrabenazine test. In this test a quantity of the compound to be tested was administered orally to five male albino mice. After 45 minutes the animals were injected subcutaneously with 80 mg/kg of tetrabenazine. After another 45 minutes the degree of ptosis was determined and compared with the ptosis of animals which had received tetrabenazine alone. The ED50 was determined from the results.

[2] = test system: serotonin (5-hydroxytryptophan); assay: serotonin potentiation, 5-hydroxytryptophan test; conditions: Mus musculus; oral, mice; 1 hour before 150 mg/kg i.p. dl-5-hydroxytryptophan
Procedure: The serotonin potentiation was determined in the 5-hydroxytryptophan test. For this purpose, the compounds to be tested were administered orally in a series of dosages to isolated male albino mice (5 mice per dosage) 1 hour prior to intraperitoneal administration of 150 mg/kg of dl-5-hydroxytryptophan. Thirty minutes after this threshold dosage the mice were observed individually and the following parameters were scored: stereotypical shaking of the head, spreading of the hindlegs, tremor, tendency to flee, lordosis, clonic stamping with the frontlegs. The ED50 value was calculated from the results.

[3] = test system: monoamino oxidase (MAO); assay: monoamino oxidase (MAO) inhibiting effect, tryptamine hydrochloride mortality test; conditions: oral, mice; 1 hour before 250 mg/kg s.c. tryptamine hydrochloride; mortality after 18 hours
Procedure: The monoamino oxidase (MAO) inhibiting effect was determined in experiments in which a quantity of the compound to be tested was administered orally to five male albino mice. One hour later the animals were injected subcutaneously with tryptamine hydrochloride in a quantity of 250 mg/kg. […] Eighteen hours after the administration of tryptamine hydrochloride it was determined how many treated animals had died. The ED50 was determined from the results. By means of the method by Metysova, Arzneimittelforschung 13,- 1039 (1963) it was determined whether the oral administration of 200 mg of a compound to be tested to rats causes stomach ulceration.

**Q.** With `COCCOCCCCC(=NOCCN)c1ccc(Br)cc1` [Br OC2 H4 OCH3, 4'-bromo-5-(2-methoxyethoxy) valerophenone O-(2-aminoethyl) oxime fumarate (1 : 1)] as the compound, how does the ED50 [1] read?
**A.** 6.6 mg/kg

**Q.** And the ED50 [2]?
**A.** 35 mg/kg

**Q.** What about the “MAO inhibition ED50” value [3] of the same compound?
**A.** > 215 mg/kg

**Q.** Which ED50 [1] does the source give for `COCCCCCC(=NOCCN)c1ccc(Cl)cc1.Cl` [Cl C2 OCH3, 4'-chloro-6-methoxycaprophenone O-(2-aminoethyl) oxime hydrochloride] here?
**A.** 5.3 mg/kg

**Q.** And the ED50 [2]?
**A.** 36 mg/kg

**Q.** What about the “MAO inhibition ED50” value [3] of the same compound?
**A.** > 215 mg/kg

**Q.** For `CCCCCC(=NOCCN)c1ccc(Cl)cc1` [Cl CH3, reference compound], which ED50 [1] is on record?
**A.** 1.9 mg/kg

**Q.** And the ED50 [2]?
**A.** 14 mg/kg

**Q.** And the “MAO inhibition ED50” value [3]?
**A.** > 215 mg/kg

**Q.** How did the ED50 [1] turn out when `CCOCCCCCC(=NOCCN)c1ccc(Cl)cc1.Cl` [Cl CH2 OC2 H5, 4'-chloro-6-ethoxycaprophenone O-(2-aminoethyl) oxime hydrochloride] was run?
**A.** 7.4 mg/kg

**Q.** What about the ED50 [2] of the same compound?
**A.** 54 mg/kg

**Q.** What about the “MAO inhibition ED50” value [3] of the same compound?
**A.** > 215 mg/kg

**Q.** For `Cl.N#CCCCCC(=NOCCN)c1ccc(Cl)cc1` [Cl CN, 4'-chloro-5-cyanovalerophenone O-(2-aminoethyl) oxime hydrochloride], which ED50 [1] is on record?
**A.** 6.8 mg/kg

**Q.** And the ED50 [2]?
**A.** 20 mg/kg

**Q.** What about the “MAO inhibition ED50” value [3] of the same compound?
**A.** > 215 mg/kg

**Q.** Which ED50 [1] does the source give for `Cl.N#CCCCCCC(=NOCCN)c1ccc(Cl)cc1` [Cl CH2 CN, 4'-chloro-6-cyanocaprophenone O-(2-aminoethyl) oxime hydrochloride] here?
**A.** 11 mg/kg

**Q.** And the ED50 [2]?
**A.** 38 mg/kg

**Q.** What about the “MAO inhibition ED50” value [3] of the same compound?
**A.** > 215 mg/kg

**Q.** How did the ED50 [1] turn out when `COCCCCC(=NOCCN)c1ccc(Br)cc1` [Br OCH3, 4'-bromo-5-methoxyvalerophenone O-(2-aminoethyl) oxime fumarate (1 : 1)] was run?
**A.** 6.6 mg/kg

**Q.** And the ED50 [2]?
**A.** 22 mg/kg

**Q.** And the “MAO inhibition ED50” value [3]?
**A.** > 215 mg/kg

**Q.** What does the source list for `CCCCCC(=NOCCN)c1ccc(Br)cc1` [Br CH3, reference compound]?
**A.** ED50 [1]: 3.1 mg/kg; ED50 [2]: 10 mg/kg; MAO inhibition ED50 [3]: > 215 mg/kg

**Q.** `Cl.N#CCCCCC(=NOCCN)c1ccc(Br)cc1` [Br CN, 4'-bromo-5-cyanovalerophenone O-(2-aminoethyl) oxime hydrochloride] was tested. Which ED50 [1] did it give?
**A.** 11.2 mg/kg

**Q.** What about the ED50 [2] of the same compound?
**A.** 20 mg/kg

**Q.** What about the “MAO inhibition ED50” value [3] of the same compound?
**A.** > 215 mg/kg

**Q.** `CCOCCCCC(=NOCCN)c1ccc(Cl)cc1` [Cl OC2 H5, 4'-chloro-5-ethoxyvalerophenone O-(2-aminoethyl) oxime fumarate (1 : 1)] was tested. Which ED50 [1] did it give?
**A.** 4.3 mg/kg

**Q.** And the ED50 [2]?
**A.** 36 mg/kg

**Q.** What about the “MAO inhibition ED50” value [3] of the same compound?
**A.** > 215 mg/kg

**Q.** Which results are given for `COCCOCCCCC(=NOCCN)c1ccc(Cl)cc1` [Cl OC2 H4 OCH3, 4'-chloro-5-(2-methoxyethoxy) valerophenone O-(2-aminoethyl) oxime fumarate (1 : 1)]?
**A.** ED50 [1]: 4 mg/kg; ED50 [2]: 41 mg/kg; MAO inhibition ED50 [3]: > 215 mg/kg

**Q.** Which ED50 [1] does the source give for `CCCCC(=NOCCN)c1ccc(Cl)cc1` [Cl H, reference compound] here?
**A.** 5.6 mg/kg

**Q.** And the ED50 [2]?
**A.** 12 mg/kg

**Q.** And the “MAO inhibition ED50” value [3]?
**A.** > 215 mg/kg
